The test system of one series is CWR22-rv1 tumors. Description: CWR22-rv1 tumors in mice, combination treatment with Nic-S and enzalutamide.
A further series concerns CWR22Rv1. Description: CWR22Rv1 cell number with Nic-S with or without enzalutamide or abiraterone acetate. Format: cell-based.
Another series has as its system Wnt5A. Description: Wnt5A expression by Western blot in C4-2B MDVR cells. Format: cell-based. Conditions: C4-2B MDVR cell lysates, different concentrations. Background: Immunoblotting shows a protein as a band on a membrane.
Series [1] concerns AR. Description: AR expression by western blot in VCaP cells. Conditions: 3 days; for AR expression: western blot, 25 μM Si-1 or Si-2 or 20 μM enzalutamide alone.
Description: (§1) The sensitivity of prostate cancer cells to STS inhibitors was tested using cell growth assays and clonogenic assays. Quantitative reverse transcription-PCR, and Western blotting were performed to detect expression levels of STS and AR. […] Steroid profile including DHEA and androgens was analyzed by Liquid Chromatography-Mass Spectrometry (LC-MS). STS activity was determined by 4-Methylumbelliferyl sulfate assay through a fluorescence microtiter plate reader. PSA secretion was determined by ELISA and PSA-luciferase activity was measured by reporter assay.
(§2) The AR expression was also determined by western blot.
The subject of series [2] is C4-2B, LNCaP, DU145, PC3, CWR22rv1 and VCaP cells. Briefly: Prostate cancer cell growth assay (cell numbers counted).
The test system of series [3] is AR. Description: PSA-luciferase reporter assay (AR transcriptional activity) in VCaP cells. Format: cell-based. Background: Reporter assays use an easily measured gene product as a stand-in for the process of interest.
Description: as §1, §2
The next series concerns the target T1, STS (Homo sapiens, UniProt P08842).
T1 construct: A VCaP tumor model that expresses endogenous STS was employed; endogenous in cells; host or cells: VCaP prostate cancer cells
T1 sequence (P08842 22-583): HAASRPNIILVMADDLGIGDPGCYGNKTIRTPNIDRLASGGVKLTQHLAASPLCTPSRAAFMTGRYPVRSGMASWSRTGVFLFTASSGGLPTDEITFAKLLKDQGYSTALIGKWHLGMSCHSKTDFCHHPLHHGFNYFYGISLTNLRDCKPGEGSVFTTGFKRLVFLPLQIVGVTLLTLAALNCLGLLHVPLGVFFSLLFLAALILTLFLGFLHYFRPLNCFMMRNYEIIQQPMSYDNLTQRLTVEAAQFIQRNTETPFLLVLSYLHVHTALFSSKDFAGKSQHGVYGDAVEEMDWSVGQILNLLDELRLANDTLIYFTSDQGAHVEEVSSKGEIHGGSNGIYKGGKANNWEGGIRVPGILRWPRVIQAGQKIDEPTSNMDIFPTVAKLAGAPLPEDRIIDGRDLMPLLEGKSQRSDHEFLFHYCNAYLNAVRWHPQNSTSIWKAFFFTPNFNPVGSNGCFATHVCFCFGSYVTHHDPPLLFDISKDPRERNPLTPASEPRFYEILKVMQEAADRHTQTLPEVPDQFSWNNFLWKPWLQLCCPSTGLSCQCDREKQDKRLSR
Description: STS enzymatic activity in VCaP cells (4-Methylumbelliferyl sulfate microtiter plate cellular assay, fluorescence readout). Format: cell-based. The method, then:
VCaP cells were treated with 5 μM of different STSi, and STS activity was measured by microtiter plate cellular assay using fluorescence readout.
To evaluate the ability of STSi in inhibition of STS enzymatic activity, VCaP prostate cancer cells were treated with two synthesized STSi and STS enzymatic activity was measured. The activity assay was carried as described by Wolff, et al. (Anal Biochem, 2003. 318(2): p. 276-284). […] FIG. 3 shown the effects of other STSi on STS enzymatic activity in VCaP cells.

A further series concerns VCaP cells. Briefly: VCaP cell growth with or without enzalutamide. Conditions: 3 days; for VCaP cell growth, single agent: 10 μM or 25 μM Si-1 or Si-2, or 20 μM enzalutamide.
The test system of series [4] is MCF-7, MDA-MB-468 and MDA-MB-231 cells. Description: Breast cancer cell growth (cell numbers counted). Format: cell-based. Conditions: different doses, 48 hrs.
The test system of the next series is VCaP tumors. Briefly: Castration relapsed VCaP xenograft tumor model. Conditions: for Ki67 expression in relapsed VCaP tumors, single agent / tumor growth, single agent (combination study): enzalutamide 25 mg/Kg p.o. or Si-1 25 mg/Kg i.p. The method, then: Tumor volumes were determined twice weekly.
VCaP tumors were allowed to develop in intact SCID mice and the animals were castrated after tumors reached 80-100 mm^3 of size. […] Tumor proliferation and AR expression by IHC was also examined.
The VCaP tumor model was then used to validate the efficacy of combination therapy.

For series [5] the following is noted: in vivo; cited from earlier work.
For series [6] the following is noted: cited from earlier work.

Entries after “also recorded” stand apart in the source; their conditions may differ.

In the case of `NS(=O)(=O)Oc1ccc(Cl)cc1C(=O)Nc1ccc([N+](=O)[O-])cc1Cl` [Niclosamide sulfamate, niclosamide sulfamate], the toxicity entry in the series on CWR22-rv1 tumors (body weight of mice bearing CWR22-rv1 tumors) is given as “without obvious toxicity”. Also, in the series on CWR22-rv1 tumors (tumor volume, mice bearing CWR22-rv1 tumors), the “enhancement of enzalutamide treatment in vivo” value is listed as “synergistically enhance”. Besides, the “enhancement of Enza/AA treatment” value in the series on CWR22Rv1 (0.5 μM Nic-S with 20 μM enzalutamide or 5 μM abiraterone acetate) is reported as “synergistically enhances”. Besides, the “enhancement of enzalutamide treatment in vitro” value in the series with CWR22Rv1 (0.5 μM Nic-S with 20 μM enzalutamide, 3 and 5 days) is listed as “synergistically enhance”. Also, the Wnt5A expression entry with Wnt5A is on record as “inhibit”; in the series with Wnt5A (listed as Nic-S), “suppresses”.

As for `CCN(C(=O)C1=CCC2C3CCc4cc(OS(N)(=O)=O)ccc4C3CCC12C)C(C)C` (stereo not drawn) [Si-1], in the series on AR [1] (25 μM Si-1 or Si-2 with 20 μM enzalutamide), the “AR expression, combination with enzalutamide” value is on record as “completely suppressed”. Further, the AR expression entry in the series on AR [1] is recorded as “significantly suppressed; also recorded: significantly decreased”. Further, the “growth of C4-2B and VCaP cells” value in series [2] (C4-2B and VCaP cells) is given as “inhibited”. Further, the “cell growth (cell numbers)” value in series [2] (increasing doses, 48 hrs, C4-2B, LNCaP, DU145, PC3, CWR22rv1 and VCaP cells) was “inhibited cell growth in a dose dependent manner”. Also, in the series with AR [3], the AR transcriptional activity entry is “significantly suppressed”. Also, the STS activity entry at STS is given as “inhibited”. Moreover, the “VCaP cell growth, single agent” value in the series on VCaP cells is listed as “reduced”. In the series on VCaP cells (Si-1 or Si-2 with 20 μM enzalutamide), the “VCaP cell numbers, combination with enzalutamide” value is reported as “further reduced”. The “breast cancer cell growth (cell numbers)” value in series [4] is reported as “inhibits cell growth in a dose dependent manner”. In the series on VCaP tumors (25 mg/kg/d i.p., 3 weeks), the “AR staining / tumor AR expression in VCaP tumors (IHC)” value is “significantly suppressed”, the “Ki67 staining in VCaP tumors (IHC)” value is recorded as “less” and the “tumor suppression compared with control” value is reported as “around 60%”. Further, the “relapsed VCaP tumor growth / tumor progression” value with VCaP tumors (25 mg/kg/d i.p., castrated mice, 3 weeks) is “significantly suppressed; also recorded: significantly diminished”. Besides, the “decrease of serum PSA” value in the series with VCaP tumors (3 weeks of treatment, control group 300 ng/mL PSA, ELISA) was 50%. The “Ki67 expression in relapsed VCaP tumors, combination with enzalutamide” value in the series with VCaP tumors (IHC, Si-1 plus enzalutamide) is on record as “further lowered”. Besides, the “Ki67 expression in relapsed VCaP tumors, single agent” value in the series with VCaP tumors (IHC) is “significantly decreased”. In addition, the “tumor growth, combined with enzalutamide” value in the series on VCaP tumors (Si-1 25 mg/Kg i.p. plus enzalutamide 25 mg/Kg p.o., 3 weeks) is listed as “further suppressed”. In the series on VCaP tumors (Si-1 25 mg/Kg i.p., 3 weeks), the “tumor weight, single agent (combination study)” value is given as “significantly suppressed”. The tumor weight entry in the series with VCaP tumors (after 3 weeks treatment, 25 mg/kg/d i.p.) is “significantly decreased”. Further, in the series on VCaP tumors (compared with control group, 25 mg/kg/d i.p.), the mice body weight entry was “not affected”. For the same compound, in the series on VCaP tumors (3 weeks), the “tumor growth, single agent (combination study)” value is reported as “significantly suppressed”.

Regarding `O=C(Nc1ccc([N+](=O)[O-])cc1Cl)c1cc(Cl)ccc1O` [Niclosamide, 2′,5-dichloro-4′-nitrosalicylanilide], the oral bioavailability entry in [5] is “low”. Moreover, the solubility entry in series [6] is recorded as “low”.

For the compound `CNC(=O)c1ccc(N2C(=S)N(c3ccc(C#N)c(C(F)(F)F)c3)C(=O)C2(C)C)cc1F` [enzalutamide, reference compound], in the series with AR [1], the AR expression result is recorded as “decreased”. Further, the “VCaP cell growth, single agent” value in the series with VCaP cells is “slightly suppressed”. Further, the “Ki67 expression in relapsed VCaP tumors, single agent” value with VCaP tumors (IHC) is on record as “did not affect”. For the same compound, in the series with VCaP tumors (3 weeks), the “tumor growth, single agent (combination study)” value is reported as “only slighted delayed”.
